Earlier results on 2 compounds are cited in US7459460B2, “Trisubstituted heteroaromatic compounds as calcium sensing receptor modulators” (Bristol-Myers Squibb Company, priority 2003, dated 2008).

For data set [1] the following is noted: postmenopausal women, placebo-controlled trial.
For data set [2] the following is noted: OVX rats, oral administration, in the presence of an anti-resorptive agent.
The conditions of data set [3]: intravenous bolus injection.

As for “PTH peptide fragment (1-34): the PTH peptide fragment (1-34) of parathyroid hormone (SVSEIQLMHNLGKHLNSMERVEWLRKKLQDVHNF; Parathyroid hormone; UniProt P01270 32-65, looked up, fragment)”, in data set [1], the “reduce the risk of non-traumatic, non-spine fractures” value is recorded as 54% and the “reduce the risk of spine fractures” value is recorded as 65%.

With `CC(C)(Cc1ccc2ccccc2c1)NC[C@@H](O)COc1cccc(Cl)c1C#N` [NPS-2143], the bone mass result in data set [2] was “increase in bone mass”. In data set [3], the “serum PTH” value is “transient increase in serum PTH”.
